{
  "source": "patent US11034913B2",
  "about": "“Metal working fluid” (Henkel AG & Co. KGaA, priority 2015, dated 2021)",
  "type_in_all_cases": "cell-based",
  "key": {"[1]": {"tested_on": "mixed Gram-negative bacteria", "test": "Minimum inhibitory concentration testing (biostat candidate screening, Phase 1 and Phase 2; dip slide counts)"}, "[2]": {"tested_on": "Mixed Gram Negative Bacteria", "test": "Mycobacterium challenge, four-week re-inoculation test: mixed Gram-negative bacteria count", "conditions": "5 w/w % dilution", "method": "(§1) A tap water dilution of the metal working fluid for the Mycobacterium challenge was made to a concentration of 5 w/w %. The sample was tested by Biosan Laboratories, in Warren, Mich., USA, an independent commercial biological laboratory, for biostatic activity against Mycobacterium and against mixed Gram-negative bacteria.\n(§2) The test method evaluated the effectiveness of antimicrobial agents in controlling Mycobacterium immunogenum in the presence of high background population of Gram-negative and other bacteria responsible for metal working fluid deterioration. Sample metal working fluids including the biostat of Example 5 and antimicrobial agents were prepared at use concentrations. 1% iron chips were added to the diluted metal working fluid samples. Two microbial populations were then introduced at a 1% level: an undefined Gram-negative bacterial inoculum isolated from a contaminated metal working fluid, and an inoculum containing Mycobacterium immunogenum. The inoculated test metal working fluids were incubated at room temperature (22+2° C.) on an orbital shaker for four weeks. During the four week test period, the metal working fluids were evaluated twice weekly for bacterial and mycobacterial contamination before being re-inoculated with both microbial suspensions at 1% concentrations. This re-inoculation method ensured sufficient viable Gram-negative and Mycobacterium levels throughout the test."}, "[3]": {"tested_on": "Mycobacterium immunogenum", "test": "Mycobacterium challenge, four-week re-inoculation test: Mycobacterium count", "conditions": "5 w/w % dilution", "method": "as §1, §2"}, "[4]": {"conditions": "Phase 1, log bacterial counts at 24 and 48 h versus DCHA standard, scale 0-6, 3 = matches DCHA standard, higher = better"}, "[5]": {"conditions": "Sample 1, Day 0 (Initial Inoculum)"}, "[6]": {"conditions": "Sample 2, Day 0 (Initial Inoculum)"}},
  "data": [
    {"smiles": "CC(CN)CCCN", "note": "(stereo not shown) [Example 5, Methylpentamethylene diamine]", "values": [
      {"measurement": "Differential Value Scores, Average", "setting": "[1]; Phase 1, average of Rounds 1-3, scale 0-6, 3 = matches DCHA standard", "result": 3.3},
      {"measurement": "Differential Value Scores, Round 1", "setting": "[1]; [4]", "result": 2.5},
      {"measurement": "Differential Value Scores, Round 2", "setting": "[1]; [4]", "result": 4.5},
      {"measurement": "Differential Value Scores, Round 3", "setting": "[1]; [4]", "result": 3},
      {"measurement": "Biostatic efficacy regarding Gram-negative bacteria compared with the DCHA standard", "setting": "[1]; result in words, 3 wt. % amine in metal working fluid", "result": "outperformed DCHA"},
      {"measurement": "Mixed Gram Negative Bacteria count", "setting": "[2]; [5]", "result": "~1 × 10^6 cfu/ml"},
      {"measurement": "Mixed Gram Negative Bacteria count", "setting": "[2]; Sample 1, Day 2", "result": "<2", "unit": "cfu/ml"},
      {"measurement": "Mixed Gram Negative Bacteria count", "setting": "[2]; Sample 1, Day 7", "result": "<2", "unit": "cfu/ml"},
      {"measurement": "Mixed Gram Negative Bacteria count", "setting": "[2]; Sample 1, Day 9", "result": "<2", "unit": "cfu/ml"},
      {"measurement": "Mixed Gram Negative Bacteria count", "setting": "[2]; Sample 1, Day 14", "result": "<2", "unit": "cfu/ml"},
      {"measurement": "Mixed Gram Negative Bacteria count", "setting": "[2]; Sample 1, Day 16", "result": "<2", "unit": "cfu/ml"},
      {"measurement": "Mixed Gram Negative Bacteria count", "setting": "[2]; Sample 1, Day 21", "result": "<2", "unit": "cfu/ml"},
      {"measurement": "Mixed Gram Negative Bacteria count", "setting": "[2]; Sample 1, Day 23", "result": "<2", "unit": "cfu/ml"},
      {"measurement": "Mixed Gram Negative Bacteria count", "setting": "[2]; [6]", "result": "~1 × 10^6 cfu/ml"},
      {"measurement": "Mixed Gram Negative Bacteria count", "setting": "[2]; Sample 2, Day 2", "result": "<2", "unit": "cfu/ml"},
      {"measurement": "Mixed Gram Negative Bacteria count", "setting": "[2]; Sample 2, Day 7", "result": "<2", "unit": "cfu/ml"},
      {"measurement": "Mixed Gram Negative Bacteria count", "setting": "[2]; Sample 2, Day 9", "result": "<2", "unit": "cfu/ml"},
      {"measurement": "Mixed Gram Negative Bacteria count", "setting": "[2]; Sample 2, Day 14", "result": "<2", "unit": "cfu/ml"},
      {"measurement": "Mixed Gram Negative Bacteria count", "setting": "[2]; Sample 2, Day 16", "result": "<2", "unit": "cfu/ml"},
      {"measurement": "Mixed Gram Negative Bacteria count", "setting": "[2]; Sample 2, Day 21", "result": "<2", "unit": "cfu/ml"},
      {"measurement": "Mixed Gram Negative Bacteria count", "setting": "[2]; Sample 2, Day 23", "result": "<2", "unit": "cfu/ml"},
      {"measurement": "Mycobacterium immunogenum count", "setting": "[3]; [5]", "result": "~1 × 10^5 cfu/ml"},
      {"measurement": "Mycobacterium immunogenum count", "setting": "[3]; Sample 1, Day 2", "result": "<2", "unit": "cfu/ml"},
      {"measurement": "Mycobacterium immunogenum count", "setting": "[3]; Sample 1, Day 7", "result": "<2", "unit": "cfu/ml"},
      {"measurement": "Mycobacterium immunogenum count", "setting": "[3]; Sample 1, Day 9", "result": "<2", "unit": "cfu/ml"},
      {"measurement": "Mycobacterium immunogenum count", "setting": "[3]; Sample 1, Day 14", "result": "<2", "unit": "cfu/ml"},
      {"measurement": "Mycobacterium immunogenum count", "setting": "[3]; Sample 1, Day 16", "result": "<2", "unit": "cfu/ml"},
      {"measurement": "Mycobacterium immunogenum count", "setting": "[3]; Sample 1, Day 21", "result": "<2", "unit": "cfu/ml"},
      {"measurement": "Mycobacterium immunogenum count", "setting": "[3]; Sample 1, Day 23", "result": "<2", "unit": "cfu/ml"},
      {"measurement": "Mycobacterium immunogenum count", "setting": "[3]; [6]", "result": "~1 × 10^5 cfu/ml"},
      {"measurement": "Mycobacterium immunogenum count", "setting": "[3]; Sample 2, Day 2", "result": "<2", "unit": "cfu/ml"},
      {"measurement": "Mycobacterium immunogenum count", "setting": "[3]; Sample 2, Day 7", "result": "<2", "unit": "cfu/ml"},
      {"measurement": "Mycobacterium immunogenum count", "setting": "[3]; Sample 2, Day 9", "result": "<2", "unit": "cfu/ml"},
      {"measurement": "Mycobacterium immunogenum count", "setting": "[3]; Sample 2, Day 14", "result": "<2", "unit": "cfu/ml"},
      {"measurement": "Mycobacterium immunogenum count", "setting": "[3]; Sample 2, Day 16", "result": "<2", "unit": "cfu/ml"},
      {"measurement": "Mycobacterium immunogenum count", "setting": "[3]; Sample 2, Day 21", "result": "<2", "unit": "cfu/ml"},
      {"measurement": "Mycobacterium immunogenum count", "setting": "[3]; Sample 2, Day 23", "result": "<2", "unit": "cfu/ml"}
    ]}
  ]
}
